Assay results: ChEMBL document CHEMBL4011595, “Design, synthesis and structure-activity relationship studies of novel free fatty acid receptor 1 agonists bearing amide linker” (Bioorg Med Chem, 2017)

Legend:
[1] = molecular target: T1, Free fatty acid receptor 1 (Homo sapiens, UniProt O14842); test: Agonist activity at human FFA1 expressed in CHO cells assessed as increase in intracellular Ca2+ flux at 1 uM measured for 90 secs by Fluo4-AM dye based FLIPR assay relative to control; format: functional, cell-based
T1 sequence (O14842 whole entry): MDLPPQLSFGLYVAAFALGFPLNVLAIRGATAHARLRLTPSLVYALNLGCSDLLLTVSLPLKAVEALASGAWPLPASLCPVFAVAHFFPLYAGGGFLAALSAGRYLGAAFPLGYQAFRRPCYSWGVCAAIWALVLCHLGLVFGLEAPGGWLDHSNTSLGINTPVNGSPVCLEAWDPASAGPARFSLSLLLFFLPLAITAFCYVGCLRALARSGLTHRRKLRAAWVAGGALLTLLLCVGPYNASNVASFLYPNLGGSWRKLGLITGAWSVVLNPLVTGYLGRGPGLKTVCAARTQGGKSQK

Mus musculus [2] = test: Antidiabetic activity in HFD/STZ-induced type2 diabetic C57BL/6 mouse assessed as decrease in blood glucose AUC at 20 mg/kg, po administered as single dose 60 mins prior to glucose challenge measured 120 mins post dose by OGTT relative to control; format: functional; design: scale not given: the % may be the effect or the level left
Mus musculus [3] = test: Decrease in plasma glucose level in po dosed ICR mouse 60 mins before oral glucose challenge by OGTT method; format: functional, organism-based; conditions: TDE = time-dependent effect
[4] = molecular target: T1, Free fatty acid receptor 1; test: Agonist activity at FFA1 (unknown origin)
Mus musculus [5] = test: Anti-diabetic activity in ICR mouse assessed as reduction in blood glucose AUC at 50 mg/kg, po pretreated for 60 mins followed by glucose challenge measured after 120 mins by OGTT relative to control; format: functional; design: scale not given: the % may be the effect or the level left
Mus musculus [6] = test: Anti-diabetic activity in ICR mouse assessed as reduction in blood glucose level at 50 mg/kg, po pretreated for 60 mins followed by glucose challenge measured after 120 mins by OGTT relative to control; format: functional; design: scale not given: the % may be the effect or the level left
Mus musculus [7] = test: Antidiabetic activity in HFD/STZ-induced type2 diabetic C57BL/6 mouse assessed as decrease in blood glucose AUC at 100 mg/kg, po administered as single dose 60 mins prior to glucose challenge measured 120 mins post dose by OGTT relative to control; format: functional; design: scale not given: the % may be the effect or the level left
Mus musculus [8] = test: Antidiabetic activity in HFD/STZ-induced type2 diabetic C57BL/6 mouse assessed as decrease in blood glucose excursion administered as single oral dose pretreated for 60 mins followed by glucose challenge after 120 mins by OGTT; format: functional
Mus musculus [9] = test: Anti-diabetic activity in ICR mouse assessed as reduction in blood glucose level at 200 mg/kg, po pretreated for 60 mins followed by glucose challenge measured after 120 mins by OGTT relative to control; format: functional; design: scale not given: the % may be the effect or the level left

| Compound | Activity [1] [%] | further results |
| --- | --- | --- |
| O=C(O)CCc1ccc(NC(=O)c2cccnc2)cc1 | 4.29 |  |
| O=C(O)CCc1ccc(NC(=O)c2ccccc2)cc1 | 18.8 |  |
| O=C(O)CCc1ccc(NC(=O)c2ccccc2[N+](=O)[O-])cc1 | 0.19 |  |
| Cc1cc(OCCCS(C)(=O)=O)cc(C)c1-c1cccc(COc2ccc3c(c2)OC[C@H]3CC(=O)O)c1 [FASIGLIFAM] | 96.3 | Activity (Mus musculus [2]): 39.1% |
| O=C(O)CCc1ccc(NCc2cccc(Oc3ccccc3)c2)cc1 | 83.8 |  |
| O=C(O)CCc1ccc(NC(=O)c2cccc(Cl)c2)cc1 | 25.4 | Activity (Mus musculus [3]): Tde |
| CC#C[C@@H](CC(=O)O)c1ccc(NC(=O)C(=O)Nc2cccc(C(C)(C)C)c2)cc1 |  | EC50 [4]: 4 nM |
| CC(C)(C)c1ccc(C(=O)Nc2ccc(CCC(=O)O)cc2)cc1 | 21.4 | Activity (Mus musculus [3]): Tde |
| O=C(O)CCc1ccc(NC(=O)c2cccc(Oc3ccccc3)c2)cc1 | 34.3 | Activity (Mus musculus [3]): Tde; Activity (Mus musculus [5]): 12.8% |
| Cc1ccccc1C(=O)Nc1ccc(CCC(=O)O)cc1 | 5.67 |  |
| O=C(O)c1ccc(NC(=O)c2ccc(C(=O)c3ccccc3)cc2)cc1 | 15.3 |  |
| O=C(O)CCc1ccc(NC(=O)c2cccs2)cc1 | 13.8 |  |
| Cc1cccc(C)c1-c1cccc(C(=O)Nc2ccc(CCC(=O)O)cc2)c1 | 45.8 | Activity (Mus musculus [6]): 23.7%; Activity (Mus musculus [3]): Tde; Activity (Mus musculus [7]): 29.1%; Activity (Mus musculus [8]): Dose-dependent effect; Activity (Mus musculus [5]): 23.7% |
| Cc1cccc(C(=O)Nc2ccc(CCC(=O)O)cc2)c1 | 29.4 | Activity (Mus musculus [3]): Tde; Activity (Mus musculus [5]): 20.3% |
| COc1ccccc1C(=O)Nc1ccc(CCC(=O)O)cc1 | 1.26 |  |
| CN(C)C(=N)NC(=N)N [METFORMIN] |  | Activity (Mus musculus [9]): 27.8% |
| O=C(O)CCc1ccc(NC(=O)c2ccsc2)cc1 | 15.4 |  |
| Cc1ccc(C(=O)Nc2ccc(CCC(=O)O)cc2)cc1 | 19.4 |  |
| COc1cccc(C(=O)Nc2ccc(CCC(=O)O)cc2)c1 | 19.8 |  |
| O=C(O)CCc1ccc(NC(=O)c2ccc(Cl)cc2)cc1 | 17.9 |  |
| O=C(O)CCc1ccc(NC(=O)c2ccccc2Cl)cc1 | 7.73 |  |
